# Test results reported in ChEMBL document CHEMBL1201862, “PubChem BioAssay data set” (2004).
# Calls of active or inactive are those of the source.
# Legend:
# [1] = biological target: Eukaryotic translation initiation factor 4E (Mus musculus, UniProt P63073); assay: eIF4E–eIF4G protein interaction inhibitors, dose response, biochemical, TR-FRET (AID 855); type: functional;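 also: potency for disrupting eIF4E binding to eIF4GI seen as loss of FRET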
# [2] = biological target: E3 ubiquitin-protein ligase XIAP (Homo sapiens, UniProt P98170); assay: Counter Screen using XIAP-Bir3 for Chemical Antagonists of Bir1/2 domains of IAP-family anti-apoptotic proteins. [Related pubchem assays (depositor defined):AID1018, AID1449, AID1514, AID1638, AID1749, AID1750, AID488957, AID488963]
# [3] = Luminescence Cell-Based Dose Retest to Confirm Inhibitors of Cancer Stem Cells. [Related pubchem assays (depositor defined):AID2717, AID2721]; type: functional; settings: Homo sapiens
# [4] = biological target: T1, Tyrosine-protein phosphatase non-receptor type 7 (Homo sapiens, UniProt P35236); assay: SAR analysis of chemical inhibitors of HePTP using a Fluorescent assay - Set 2. [Related pubchem assays (depositor defined):AID1059, AID1077, AID1661, AID2085, AID521]; type: functional
# T1 sequence (P35236 whole entry): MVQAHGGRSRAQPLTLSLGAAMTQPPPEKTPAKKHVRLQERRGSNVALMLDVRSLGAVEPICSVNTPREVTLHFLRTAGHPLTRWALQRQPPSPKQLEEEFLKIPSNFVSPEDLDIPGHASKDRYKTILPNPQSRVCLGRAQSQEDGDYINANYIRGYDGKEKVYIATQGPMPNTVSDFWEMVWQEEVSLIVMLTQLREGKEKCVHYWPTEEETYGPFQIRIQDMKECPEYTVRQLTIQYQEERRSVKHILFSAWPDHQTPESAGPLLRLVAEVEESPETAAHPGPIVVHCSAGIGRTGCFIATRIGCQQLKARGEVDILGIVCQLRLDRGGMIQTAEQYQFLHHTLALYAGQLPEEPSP
# [5] = biological target: Dual specificity protein phosphatase 3 (Homo sapiens, UniProt P51452); assay: SAR VHR1 Fluorescent Assay for In Vitro dose response studies Set 2. [Related pubchem assays (depositor defined):AID1654, AID1661, AID1878]; type: functional
# cells = type: functional
# [6] = test system: Streptococcus sp. 'group A'; assay: growth inhibition of control SK(-) GAS strain, dose response, counter-screen for streptokinase expression inhibitor project, luminescence, kanamycin, BacTiterGlo, confirmation (AID 1900); type: functional, organism-based
# Streptococcus = assay: Group A Streptococcus viability loss, dose response, counter-screen for streptokinase expression inhibitor project, luminescence, BacTiterGlo (AID 1915); type: functional, organism-based;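 also: potency for reduction of bacterial viability or growth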
# [7] = THP-1 cell cytotoxicity, dose response, cytotoxicity control for non-replicating M. tuberculosis project (AID 489025); type: functional
# Streptokinase A = biological target: T2, Streptokinase A (Streptococcus pyogenes serotype M1, UniProt P10520); assay: S. pyogenes streptokinase expression inhibitors, potency, dose response, plasminogen activation absorbance, OD405 (AID 1914); type: functional, Streptococcus pyogenes M1 GAS;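 also: secreted streptokinase activity via plasminogen activation per viability signal from cell pellet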
# T2 sequence (P10520 whole entry): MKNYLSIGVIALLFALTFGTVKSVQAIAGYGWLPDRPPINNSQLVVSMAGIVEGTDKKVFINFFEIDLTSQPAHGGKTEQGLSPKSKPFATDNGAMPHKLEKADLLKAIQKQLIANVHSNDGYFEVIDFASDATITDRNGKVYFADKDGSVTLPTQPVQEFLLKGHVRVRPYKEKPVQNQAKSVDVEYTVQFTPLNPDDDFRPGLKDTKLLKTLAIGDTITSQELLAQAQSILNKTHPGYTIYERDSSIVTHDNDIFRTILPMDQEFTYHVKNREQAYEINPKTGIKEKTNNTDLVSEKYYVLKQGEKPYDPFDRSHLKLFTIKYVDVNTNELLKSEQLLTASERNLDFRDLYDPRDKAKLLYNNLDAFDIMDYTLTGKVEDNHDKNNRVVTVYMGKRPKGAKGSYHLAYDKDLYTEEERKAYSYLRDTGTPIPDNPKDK
# [8] = Vero E6 cell cytotoxicity, dose response, cytotoxicity control for non-replicating M. tuberculosis project, secondary assay (AID 492998); type: functional, VeroE6; settings: Vero C1008
# Beta Lactamase = Beta Lactamase (Pseudomonas aeruginosa, UniProt Q932Y6); assay: beta-lactamase reporter inhibitor potency, dose response, artefact control for NOD2-RIPK2 interaction inhibitor project, BLA reporter cells, FRET fluorescence (AID 651552); type: functional, cell-based
# [9] = LGR2 antagonists, dose response, cell-based, HEK293, CRE-luciferase reporter, cherry pick, set 2 (AID 743343); type: functional;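 also: transfected cells were stimulated with diluted bursicon conditioned medium after compound addition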
# [10] = biological target: T3, Alkaline phosphatase, tissue-nonspecific isozyme (Homo sapiens, UniProt P05186); assay: human TNAP enzyme inhibitors, SAR follow-up, biochemical, luminescent, dose response (AID 1056)
# T3 sequence (P05186 whole entry): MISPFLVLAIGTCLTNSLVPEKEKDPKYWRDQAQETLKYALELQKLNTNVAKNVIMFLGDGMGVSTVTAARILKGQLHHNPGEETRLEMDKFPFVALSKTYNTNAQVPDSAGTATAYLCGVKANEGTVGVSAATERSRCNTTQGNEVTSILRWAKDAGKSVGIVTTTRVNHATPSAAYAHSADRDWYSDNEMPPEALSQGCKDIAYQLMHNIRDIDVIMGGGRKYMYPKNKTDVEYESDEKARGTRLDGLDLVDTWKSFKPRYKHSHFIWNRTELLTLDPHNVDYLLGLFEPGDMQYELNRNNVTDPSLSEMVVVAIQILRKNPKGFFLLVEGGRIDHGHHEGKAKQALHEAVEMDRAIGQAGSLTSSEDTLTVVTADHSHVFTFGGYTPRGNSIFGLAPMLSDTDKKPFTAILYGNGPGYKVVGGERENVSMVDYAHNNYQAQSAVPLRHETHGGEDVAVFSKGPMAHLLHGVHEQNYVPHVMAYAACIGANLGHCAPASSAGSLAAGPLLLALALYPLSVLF
# [11] = biological target: Phosphoethanolamine/phosphocholine phosphatase (Homo sapiens, UniProt Q8TCT1); assay: SAR assay for compounds that inhibit PHOSPHO1. [Related pubchem assays (depositor defined):AID1545, AID1565, AID1574]
# [12] = biological target: DNA dC->dU-editing enzyme APOBEC-3G (Homo sapiens, UniProt Q9HC16); assay: Dose Response confirmation of small molecule APOBEC3G DNA Deaminase Inhibitors via a fluorescence-based single-stranded DNA deaminase assay. [Related pubchem assays (depositor defined):AID493012, AID493028]; type: functional
# [13] = MC4R antagonists, dose response, counter-screen for LGR2 antagonist project, cell-based, plate reader, cherry pick (AID 743444); type: functional;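 also: transfected HEK 293 cells stimulated with alpha-MSH peptide; potency of inhibitors of the alpha-MSH evoked signal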
# [14] = Fluorescence-based cell-based high throughput dose response assay for inhibitors of the interaction of nucleotide-binding oligomerization domain containing 2 (NOD2) and the receptor-interacting serine-threonine kinase 2 (RIPK2).; type: functional; settings: Homo sapiens
# [15] = HeLa cell cytotoxicity, dose response, cytotoxicity control for MgcRacGAP inhibitor project (AID 624300); type: functional
# [16] = biological target: T4, Rac GTPase-activating protein 1 (Homo sapiens, UniProt Q9H0H5); assay: MgcRacGAP GTPase-activating activity inhibitors, confirmation, biochemical, ADP Hunter fluorescence, primary and confirmatory (AID 624330); type: functional
# T4 sequence (Q9H0H5 whole entry): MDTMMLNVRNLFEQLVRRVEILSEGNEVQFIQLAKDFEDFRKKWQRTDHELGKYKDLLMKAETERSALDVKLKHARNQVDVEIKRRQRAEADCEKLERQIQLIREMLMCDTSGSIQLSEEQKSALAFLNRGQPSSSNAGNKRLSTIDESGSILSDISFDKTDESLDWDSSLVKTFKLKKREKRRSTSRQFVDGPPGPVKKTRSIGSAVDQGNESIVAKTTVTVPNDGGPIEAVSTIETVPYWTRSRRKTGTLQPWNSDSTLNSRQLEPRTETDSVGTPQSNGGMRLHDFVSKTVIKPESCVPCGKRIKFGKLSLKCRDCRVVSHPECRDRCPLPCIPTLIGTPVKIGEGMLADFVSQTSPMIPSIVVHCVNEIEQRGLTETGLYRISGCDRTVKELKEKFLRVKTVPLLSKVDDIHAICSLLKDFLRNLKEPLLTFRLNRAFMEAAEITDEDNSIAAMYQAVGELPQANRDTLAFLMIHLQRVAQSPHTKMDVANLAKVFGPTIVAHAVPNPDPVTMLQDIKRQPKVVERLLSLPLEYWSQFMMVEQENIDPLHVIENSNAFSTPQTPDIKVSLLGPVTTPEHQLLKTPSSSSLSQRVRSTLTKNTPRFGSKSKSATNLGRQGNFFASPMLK
# Eukaryotic translation initiation factor 4E, sequence (P63073 whole entry): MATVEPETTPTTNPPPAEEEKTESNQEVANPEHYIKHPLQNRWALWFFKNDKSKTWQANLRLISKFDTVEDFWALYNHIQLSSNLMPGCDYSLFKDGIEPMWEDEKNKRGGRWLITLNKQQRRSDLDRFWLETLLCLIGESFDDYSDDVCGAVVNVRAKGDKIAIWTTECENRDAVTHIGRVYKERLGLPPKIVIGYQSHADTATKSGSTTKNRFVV
# DNA dC->dU-editing enzyme APOBEC-3G, sequence (Q9HC16 whole entry): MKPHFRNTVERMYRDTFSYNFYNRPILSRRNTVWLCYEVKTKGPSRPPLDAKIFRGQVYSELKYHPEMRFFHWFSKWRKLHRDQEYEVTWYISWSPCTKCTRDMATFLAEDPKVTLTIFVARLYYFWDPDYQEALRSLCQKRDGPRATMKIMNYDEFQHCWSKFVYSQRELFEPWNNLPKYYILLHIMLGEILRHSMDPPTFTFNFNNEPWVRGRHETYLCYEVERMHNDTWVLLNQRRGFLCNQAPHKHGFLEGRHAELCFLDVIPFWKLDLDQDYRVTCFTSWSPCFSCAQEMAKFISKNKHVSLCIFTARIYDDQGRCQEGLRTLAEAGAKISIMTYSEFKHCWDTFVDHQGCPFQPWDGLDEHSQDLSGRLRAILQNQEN
# E3 ubiquitin-protein ligase XIAP, sequence (P98170 whole entry): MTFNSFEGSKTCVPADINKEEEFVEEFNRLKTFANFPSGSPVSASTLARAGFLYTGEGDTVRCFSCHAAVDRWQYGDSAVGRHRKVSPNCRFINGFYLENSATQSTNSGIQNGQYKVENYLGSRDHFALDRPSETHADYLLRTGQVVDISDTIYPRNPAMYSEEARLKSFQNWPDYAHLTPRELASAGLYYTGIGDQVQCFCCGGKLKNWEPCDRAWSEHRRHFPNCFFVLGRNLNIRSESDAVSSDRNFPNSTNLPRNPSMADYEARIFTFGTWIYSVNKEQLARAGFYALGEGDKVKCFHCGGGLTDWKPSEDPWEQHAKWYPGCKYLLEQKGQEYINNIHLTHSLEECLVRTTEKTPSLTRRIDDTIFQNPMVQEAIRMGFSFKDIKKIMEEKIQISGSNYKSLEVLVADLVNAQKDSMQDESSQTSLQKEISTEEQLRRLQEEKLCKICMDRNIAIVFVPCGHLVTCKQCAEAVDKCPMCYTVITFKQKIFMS
# Phosphoethanolamine/phosphocholine phosphatase, sequence (Q8TCT1 whole entry): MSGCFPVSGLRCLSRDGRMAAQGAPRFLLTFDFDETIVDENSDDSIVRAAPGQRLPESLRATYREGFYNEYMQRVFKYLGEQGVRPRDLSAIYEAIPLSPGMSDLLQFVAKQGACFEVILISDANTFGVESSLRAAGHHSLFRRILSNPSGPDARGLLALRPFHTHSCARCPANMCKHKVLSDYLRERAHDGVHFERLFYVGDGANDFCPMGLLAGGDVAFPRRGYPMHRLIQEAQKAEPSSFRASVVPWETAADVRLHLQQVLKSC
# Dual specificity protein phosphatase 3, sequence (P51452 whole entry): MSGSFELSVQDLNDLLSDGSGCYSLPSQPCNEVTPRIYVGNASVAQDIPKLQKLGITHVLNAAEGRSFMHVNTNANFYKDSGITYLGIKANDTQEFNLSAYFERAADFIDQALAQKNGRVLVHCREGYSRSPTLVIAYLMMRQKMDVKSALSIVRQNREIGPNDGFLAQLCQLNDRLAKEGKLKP
# Beta Lactamase, sequence (Q932Y6 whole entry): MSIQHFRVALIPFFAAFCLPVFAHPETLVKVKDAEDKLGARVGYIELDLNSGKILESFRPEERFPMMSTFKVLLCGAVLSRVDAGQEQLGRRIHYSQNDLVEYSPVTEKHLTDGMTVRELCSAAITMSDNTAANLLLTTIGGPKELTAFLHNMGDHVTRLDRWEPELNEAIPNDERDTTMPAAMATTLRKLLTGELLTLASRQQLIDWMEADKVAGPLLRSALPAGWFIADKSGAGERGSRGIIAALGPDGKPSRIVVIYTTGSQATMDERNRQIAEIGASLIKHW
smiles,measurement,setting,value
CC(=O)Nc1ccc(/N=C/c2c(O)c(C(=O)Nc3ccccc3)cc3ccccc23)cc1,IC50,[1],50 µM (inactive)
same,IC50,[2],> 20 µM (inactive)
same,AC50,[3],1.01 µM (active)
CCCOc1ccc(C(=S)NCc2ccc(F)c(C(F)(F)F)c2)cc1,IC50,[4],39.2 µM (active)
same,IC50,[5],71.7 µM (active)
COc1ccc(C(=O)Nc2nnc(-c3ccccc3)o2)cc1OC,IC50,cells,17.2 µM (active)
same,EC50,[6],6.46 µM (active)
same,EC50,Streptococcus,> 150 µM (not active)
same,CC50,[7],> 40 µM (active)
same,EC50,Streptokinase A,> 150 µM (not active)
same,CC50,[8],> 20 µM (active)
COc1ccc(-n2sc3ccc(F)cc3c2=O)cc1,IC50,Beta Lactamase,19.9 µM (inactive)
same,AC50,[9],6.6 µM (active)
same,IC50,[10],> 100 µM (inactive)
same,IC50,[11],6.67 µM (inactive)
same,IC50,[12],10.8 µM (active)
same,AC50,[13],5.92 µM (active)
same,IC50,[14],5.42 µM (active)
same,CC50,[15],100 µM (active)
same,IC50,[16],45.2 µM (active)
